Experimental data published in patent US20080249043A1, “Methods and Compositions Involving Protein Kinase C-Delta” (priority 2004, published 2008).

Key:
HeLa cells = experiment: Apoptosis by PI staining and flow cytometry (subG1 population) in HeLa cells; assay type: cell-based
Procedure: Cell culture, transfection and treatment—HeLa cells were cultured in Dulbecco's modified Eagle's medium (DMEM) containing 10% fetal bovine serum, 2 mM L-glutamine and penicillin (100 units/ml)-streptomycin (100 μg/ml) at 37° C. in a humidified 5% CO2 atmosphere. HeLa cells at 90% confluence were transfected with different mammalian expression vectors using Lipofectamin 2000 according to the manufacturer's protocol (Invitrogen Inc., Carlsbad, Calif.). At 24 h or 48 h after transfection, cells were treated with 1:100 dilution of AD198 that was dissolved in dimethyl sulfoxide (DMSO). For down-regulation of PLS3, HeLa cells at 50% confluence were transfected with siRNA against PLS3 or a scrambled control. At 48 h, cells were treated with AD198 for 16 h and harvested for flow cytometry. The whole cell lysate was extracted for analysis with Western blotting.
Analysis of apoptosis and determination of the transmembrane potential in mitochondria—Cell death was quantified by propidium iodide (PI) staining, followed by flow cytometry (Becton-Dickinson). HeLa cells were fixed in 0.5 ml cold 70% ethanol at −20° C. overnight. Cell pellet were resuspended in 300 μl of PBS containing 0.025 mg/ml PI, 0.05% Triton X-100, 0.1 mg/ml RNase A and incubated at room temperature for 30 min. The DNA content was evaluated by FACScan. For mitochondrial potential analysis, HeLa cells were incubated with MitoTracker Green at 37° C. for 20 min. The cells were collected and washed with PBS and analyzed by FACScan.
Cell culture, transfection, selection and treatment—HeLa cells were cultured in Dulbecco's modified Eagle's medium (DMEM) with 10% fetal bovine serum, 2 mM L-glutamine, 100 units/ml penicillin and 100 μg/ml streptomycin at 37° C. HeLa cells at 90% confluence were transfected with different mammalian expression vectors or siRNA using Lipofectamin 2000 according to the manufacturer's protocol (Invitrogen Inc., Carlsbad, Calif.). At 48 h after transfection, cells were incubated with 5 μM AD198 or dimethyl sulfoxide (DMSO) for 4 h or 16 h. After transfection, cells were selected with 1 mg/ml G418 for 2 wk. After corresponding mock-transfected cells were killed by G418, the concentration of G418 was decreased to 0.5 mg/ml and maintained for another 2 wk. The whole cell lysates or subcellular fractions were extracted for Western blotting analysis (Liu et al. (2003)).
Analysis of apoptosis—HeLa cells were harvested and fixed in 70% ethanol at −20° C. overnight. Cells were then washed with PBS and stained with 0.025 mg/ml propidium iodide (PI), 0.05% Triton X-100, 0.1 mg/ml RNase A for 30 min at room temperature. The DNA content was analyzed by FACScan (Becton-Dickinson), and the subG0/G1 population was used to represent apoptosis.

[1] = test system: mitochondria from HeLa cells; experiment: tBid-binding capacity of mitochondria isolated from HeLa cells (FITC-tBid(G94E)); assay type: cell-based; details: 5 μM AD198 4 h, versus DMSO-treated control cells
Procedure: (a) Increased tBid-binding capacity by AD198. Mitochondria were isolated from HeLa cells treated with 5 μM AD198 or DMSO as control for 4 h. Mitochondria (50 μg by protein) were incubated with 0, 10, 20, 60 and 100 ng/μl FITC-tBid(G94E) in total volume 50 μl for […] followed by washing to remove unbounded probes. The fluorescent intensity was quantified with Bio-Tek microplate reader. Error bars indicate standard deviations of three independent experiments. (b) Dose response with mitochondria. Various amounts of mitochondria in (a) were incubated with 10 ng/μl tBid(G94E)-FITC as in (a). The fluorescent intensity of the washed mitochondria was quantified with Bio-Tek microplate reader. (c) Expression of PLS3 or PLS3(T21D) in selected HeLa cells. […] The tBid-binding capacity of the mitochondria from each cells were analyzed as in (a). […] Mitochondria were isolated from cells in (c) and analyzed as in (b).
Analysis of the tBid-binding capacity of mitochondria—Isolated mitochondria were incubated with FITC-tBid(G94E) in 50 μl reaction buffer (250 mM sucrose, 20 mM HEPES, 10 mM KCl, 3 mM KH2PO4, 1.5 mM MgCl2, 1 mM EGTA, 0.5% mg/ml BSA, PH 7.4) for 30 min at room temperature. Mitochondria were pelleted at 10,000×g and washed extensively with the reaction buffer to remove unbound FITC-tBid(G94E) and the fluorescence intensity was quantified with Bio-Tek microplate reader.

## CCCCC(=O)OCC(=O)[C@]1(O)Cc2c(O)c3c(c(O)c2[C@@H](O[C@H]2C[C@H](NCc4ccccc4)[C@H](O)[C@H](C)O2)C1)C(=O)c1c(OC)cccc1C3=O [AD198, N-benzyladriamycin-14-valerate]
HeLa cells; HeLa cells expressing PLS3(T21A), 5 μM AD198, 16 h (FIG. 9)
  AD198-induced apoptosis: same degree of apoptosis as the control cells
HeLa cells; HeLa cells expressing wild-type PLS3, 5 μM AD198, 16 h (FIG. 9)
  percentage of AD198-induced apoptosis: 31%
HeLa cells; HeLa cells expressing wild-type PLS3, 5 μM AD198, 16 h (FIG. 11), DMSO 9%
  apoptosis after AD198 treatment: 43%
HeLa cells; HeLa cells transfected with PLS3(T21D), 5 μM AD198, 16 h (FIG. 11), DMSO 17%
  apoptosis after AD198 treatment: 27%
HeLa cells; HeLa cells, AD198 1, 5 and 10 μM, 16 h
  AD198-induced apoptosis when PKC-δ down regulated by siRNA: less apoptosis was detected
HeLa cells; HeLa cells, three concentrations of AD198, 16 h, versus without PLS3 overexpression
  sensitivity to AD198-induced apoptosis of cells with overexpression of PLS3: more sensitive
HeLa cells; HeLa cells, versus scrambled siRNA control, 16 h
  AD198-induced apoptosis in cells transfected with siRNA against PLS3: suppressed
HeLa cells; HeLa-control cells, 5 μM AD198, 16 h (FIG. 11), DMSO 6%
  apoptosis after AD198 treatment: 22%
HeLa cells; control HeLa cells, 5 μM AD198, 16 h (FIG. 9)
  percentage of AD198-induced apoptosis: 7%
[1]
  tBid-binding capacity of mitochondria: significantly higher tBid-binding capacity
